Starred links: 1 amine or outer side, 2 acyl side, 3 side chain; linkers in the order of their positions; H or OH if unused. Non-standard residues stand in square brackets, D forms with d. Residues, ends and D or L forms follow the SMILES beside them. X1 = CC[C@@H](C)[C@@H](O[*:1])C(=O)[*:2]; NMeVal(β-OH) = CN[C@H](C(=O)O)C(C)(C)O; NMeF = CN[C@@H](Cc1ccccc1)C(=O)O; aIle = CC[C@@H](C)[C@H](N)C(=O)O; NMeV = CN[C@H](C(=O)O)C(C)C
Assays:
insect stage Leishmania = assay: Effect on insect stage Leishmania in culture; type: cell-based; conditions: 20 μM; data not shown
IPC synthase = biological target: T1, IPC synthase (Saccharomyces cerevisiae, UniProt P36107); conditions: with respect to ceramide; cited from earlier work
T1 sequence (P36107 1-401): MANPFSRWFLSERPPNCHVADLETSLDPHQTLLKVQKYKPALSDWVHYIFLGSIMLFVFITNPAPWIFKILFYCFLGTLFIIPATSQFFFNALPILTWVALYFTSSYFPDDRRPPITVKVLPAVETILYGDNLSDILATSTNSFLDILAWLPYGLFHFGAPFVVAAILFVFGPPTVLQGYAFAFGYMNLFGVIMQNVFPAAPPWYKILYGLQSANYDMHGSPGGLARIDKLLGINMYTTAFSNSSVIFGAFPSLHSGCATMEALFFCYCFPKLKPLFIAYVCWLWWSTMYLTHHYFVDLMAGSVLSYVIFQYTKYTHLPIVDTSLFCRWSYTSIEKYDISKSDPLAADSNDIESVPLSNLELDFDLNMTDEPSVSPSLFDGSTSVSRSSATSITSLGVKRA
T1 sequence (Q06346 1-221 partner): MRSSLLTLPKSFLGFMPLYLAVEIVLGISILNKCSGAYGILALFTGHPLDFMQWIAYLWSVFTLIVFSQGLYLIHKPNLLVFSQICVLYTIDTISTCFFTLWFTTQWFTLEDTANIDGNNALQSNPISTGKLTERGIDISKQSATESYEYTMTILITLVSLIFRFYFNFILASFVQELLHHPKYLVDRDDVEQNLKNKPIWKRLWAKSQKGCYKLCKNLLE

[1] = test system: samples from fungal Aspergillus spp.; conditions: lack of susceptibility attributed to efflux; cited from earlier work
Wild type YPH499 yeast = assay: Agar diffusion assay, wild type yeast; type: cell-based, S. cerevisiae; conditions: FIG. 5A; 25 μM Aureobasidin A, 1 mM myriocin, 25 μM cycloheximide spotted
Experimental: (§1) A. Volumes of 1, 2 and 3 μl of 25 μM Aureobasidin A (AbA), 1 mM myriocin (MYR), 25 μM cycloheximide (CYC) and DMSO as a control (CTL) spotted onto yeast plates prepared as described in Experimental Procedures. B. Volumes of 1, 2 and 3 μl of 100 μM Aureobasidin A spotted onto yeast plates prepared as described in Experimental Procedures.
(§2) YPH499—wild type yeast; ScIPCS—YPH499-HIS-GAL-AUR1 pRS426 ScIPCS; LmIPCS—YPH499-HIS-GAL-AUR1 pRS426 LmIPCS; AGD—yeast sphingolipid bypass mutant, negative control.
(§3) Agar diffusion assay—Wild type YPH499 yeast and the transgenic strain YPH499-HIS-GAL-AUR1 complemented with ScIPCS or LmIPCS were assayed for susceptibility to Aureobasidin A (Takara), myriocin (Sigma) and cycloheximide (Sigma) as previously described (19). Briefly, 2.4×10^7 logarithmically dividing cells were embedded in 15 ml of YPD agararose (2% dextrose, 1% yeast extract, 2% peptone, 0.8% agarose) on […] square Petri dishes (Sarstedt). Inhibitors were applied in DMSO at the concentrations described below and the dishes incubated at 30° C.
(§4) In this study, the diffusion assay system previously described, with the sphingolipid bypass mutant (AGD) as a negative control, was utilized (6,19).

[2] = test system: YPH499-HIS-GAL-AUR1 complemented with ScIPCS; assay: Agar diffusion assay, yeast mutant rescued with ScIPCS; type: cell-based, S. cerevisiae; conditions: FIG. 5A; 25 μM Aureobasidin A, 1 mM myriocin, 25 μM cycloheximide spotted
Experimental: as §1, §2, §3, §4

T. cruzi enzyme (TcIPCS) = conditions: even at levels 1000 fold higher than that which inhibit the S. cerevisiae enzyme; crude parasite membrane extracts; cited from earlier work
[3] = test system: YPH499-HIS-GAL-AUR1 complemented with LmIPCS; assay: Agar diffusion assay, yeast mutant rescued with LmIPCS; type: cell-based, S. cerevisiae
Experimental: as §1, §2, §3, §4

[4] = test system: AGD yeast sphingolipid bypass mutant; assay: Agar diffusion assay, sphingolipid bypass mutant (negative control); type: cell-based, S. cerevisiae; conditions: 100 μM Aureobasidin A
Experimental: as §1, §2, §3, §4

[5] = test system: parasites without an active sphingolipid biosynthetic pathway; assay: Effect on Leishmania parasites without an active sphingolipid biosynthetic pathway; type: cell-based; conditions: 20 μM; data not shown
[6] = FIG. 5A, 1, 2 and 3 μl of 25 μM Aureobasidin A, 1 mM myriocin, 25 μM cycloheximide spotted, 30° C.

| Compound | effect against insect stage Leishmania in culture (insect stage Leishmania) | specificity of the inhibitor in Leishmania culture (insect stage Leishmania) | mode of inhibition (IPC synthase) | susceptibility of Aspergillus spp. samples [1] | susceptibility in agar diffusion assay (Wild type YPH499 yeast) | susceptibility in agar diffusion assay [2] | T. cruzi enzyme activity (T. cruzi enzyme (TcIPCS)) | susceptibility in agar diffusion assay [3, 6] | susceptibility in agar diffusion assay ([3]; FIG. 5B, 100 μM Aureobasidin A, 1, 2 and 3 μl spotted) | inhibitory effect on growth [4] | activity against parasites in which LmIPCS is redundant, relative to insect stage Leishmania [5] | sensitivity compared with wild-type or mutant rescued with ScIPCS ([3]; FIG. 5A, 1 mM myriocin) |
| --- | --- | --- | --- | --- | --- | --- | --- | --- | --- | --- | --- | --- |
| CC[C@@H](C)[C@@H]1NC(=O)[C@@H]2CCCN2C(=O)[C@H](Cc2ccccc2)N(C)C(=O)[C@H](Cc2ccccc2)NC(=O)[C@H](C(C)C)N(C)C(=O)[C@@H]([C@H](C)CC)OC(=O)[C@H](C(C)(C)O)N(C)C(=O)[C@H](CC(C)C)NC(=O)[C@H](C(C)C)N(C)C1=O [Aureobasidin A] (cyclo(F[NMeF]P[aIle][NMeV]L[NMeVal(β-OH)][X1][NMeV])) | exhibited an effect | non-specific | non-competitive inhibitor | only susceptible to Aureobasidin A in the presence of mammalian multi-drug resistance modulators | sensitive | sensitive | unaffected | resistant | sensitivity of LmIPCS to the drug was evident | lack of an inhibitory effect | equivalent activity |  |
| C=C1/C=C(\C)[C@H](CC)CC(=O)[C@H](C)C(=O)[C@@](O)(CO)C/C(OC)=C/[C@@H](C)C1 [rustmicin] |  |  |  |  |  |  | unaffected |  |  |  |  |  |
| C[C@@H]1C[C@@H]([C@H](O)CC2CC(=O)NC(=O)C2)C(=O)[C@@H](C)C1 [cycloheximide] |  |  |  |  | sensitive | sensitive |  | sensitive |  |  |  |  |
| CCCCCCC(=O)CCCCCC/C=C/C[C@@H](O)[C@H](O)[C@@](N)(CO)C(=O)O [myriocin] |  |  |  |  | sensitive | sensitive |  | sensitive |  |  |  | increased sensitivity |

Reference: US20100292179A1, “TARGET” (The University of Durham, priority 2006, published 2010)
